From patent US8771754B2, “Use of GSK3 inhibitors in combination with radiation therapies” (priority 2004, dated 2014)

Tested on: HT-22 hippocampal neuronal cells
Assay: Apoptosis assay, Annexin V-FITC and propidium iodide flow cytometry
Type: cell-based, mouse
Conditions: for radiation-induced apoptosis, cells positive for apoptosis: HT-22, pretreated (LiCl 3 mM 7 days; inhibitor VIII 1 μM or SB415286 25 μM 24 h), 3 Gy, 24 h after irradiation, 3 Gy alone 53%, untreated 8%
Method: Apoptosis assays. HT-22 cells were treated with LiCl (3 mM) for 7 days, with GSK3β inhibitor VIII (1 μM) or SB415286 (25 μM) for 24 hours prior to irradiation. Camptothecin (5 μM) was added to the HT-22 cells 6 hours prior to harvest as a positive control for apoptosis. The HT-22 cells with or without the inhibitors were irradiated with 3 Gy and harvested 24 hours post irradiation. Annexin V-FITC (5 ng) and propidium iodide (50 ng) were added to […]. Stained cells were analyzed by flow cytometry. The fraction of cells in each of the four gating windows (Q1-4) was calculated.
Apoptosis was studied in irradiated mouse HT-22 hippocampal neuronal cells pretreated with LiCl, GSK3β inhibitor VIII or SB415286. The fraction of cells in each of the four gating windows (Q1-4) was calculated and tabulated as the mean and SEM of 3 separate experiments. Camptothecin served as positive control for apoptosis and was added to HT-22 cells prior to staining for apoptosis. Camptothecin positive control induced apoptosis in 78.8% of cells. In comparison, 3 Gy irradiation induced apoptosis in 53% of cells, while 8% of untreated control cells stained positive for apoptosis (FIG. 2B). […] Lithium, as a nonspecific neuroprotector, attenuated radiation-induced apoptosis to 21.9% of cells (P=0.01, 3 Gy vs. 3 Gy+LiCl). The radioprotective effect of lithium in HT-22 neuronal cells was also analyzed by morphologic analysis using DAPI staining.

Row | SMILES | apoptosis induced by positive control (HT-22, camptothecin 5 μM added 6 hours prior to harvest) [%] | radiation-induced apoptosis, cells positive for apoptosis [%]
1 | CC[C@@]1(O)C(=O)OCc2c1cc1n(c2=O)Cc2cc3ccccc3nc2-1 [Camptothecin] | 78.8 | –
2 | COc1ccc(CNC(=O)Nc2ncc([N+](=O)[O-])s2)cc1 [GSK3β inhibitor VIII] | – | 33.9
3 | O=C1NC(=O)C(c2ccccc2[N+](=O)[O-])=C1Nc1ccc(O)c(Cl)c1 [SB415286] | – | 41.4
